Data reported in patent US9115145B2, “Tocotrienol derivatives and associated methods” (FIRST TECH INTERNATIONAL LIMITED, priority 2011, dated 2015).
Like-named read-outs stand apart in the source and are kept apart here.

How the values were obtained:
[1] = test system: +SA mammary epithelial cells; experiment: MTT assay of +SA cells (antiproliferative activity); type: cell-based, mouse; conditions: 24 hours treatment, read-out: IC50 antiproliferative activity against +SA mammary epithelial cells
Summary of the method: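 Mouse +SA mammary adenocarcinoma cells in serum-free DMEM/F12 were grown 3 days, then treated 24 h with BSA-conjugated compounds (0–40 μM; DMSO <0.1%). Viable cell number came from MTT (570 nm) against a cell standard curve. IC50 was derived by linear regression.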

[2] = test system: 60 human tumor cell lines; experiment: NCI in vitro screening against 60 human cell lines, single concentration; type: cell-based; conditions: 10 μM dose; negative values indicate cytotoxicity
Experimental: Compounds selected from Compounds 3-44 were provided to the National Cancer Institute for in vitro screening against 60-human cell lines for their ability to inhibit the growth of tumor cells in a full panel representing nine different organs (blood, lung, colon, CNS, skin, ovary, kidney, prostate, and breast). The compounds were tested at a single concentration of 10 μM, and the percentages of growth inhibitions over the sixty tested cell lines were determined. Compounds showing the highest activity were chosen for secondary assays using five different compound concentrations.
The human tumor cell lines of the cancer screening panel were grown in RPMI 1640 medium containing 5% fetal bovine serum and 2 mM L-glutamine. For a typical screening experiment, cells are inoculated into 96 well microtiter plates in 100 μL at plating densities ranging from 5000 to 40,000 cells/well depending on the doubling time of individual cell lines. After cell inoculation, the microtiter plates are incubated at 37° C., 5% CO2, 95% air and 100% relative humidity for 24 hours prior to addition of experimental drugs. After 24 hours, two plates of each cell line are fixed in situ with Trichloroacetic acid (“TCA”), to represent a measurement of the cell population for each cell line at the time of drug addition. Experimental drugs are solubilized in dimethyl sulfoxide at 400-fold the desired final maximum test concentration and stored frozen prior to use. At the time of drug addition, an aliquot of frozen concentrate is thawed and diluted to twice the desired final maximum test concentration with complete medium containing 50 ng/mL gentamicin. An aliquot of 100 μL of this drug dilution is added to the appropriate microtiter wells already containing 100 μL of medium, resulting in the required final drug concentrations. Following drug addition, the plates are incubated for an additional 48 h at 37° C., 5% CO2, 95% air, and 100% relative humidity. For adherent cells, the assay is terminated by the addition of cold TCA. Cells are fixed in situ by the gentle addition of 50 μL of cold 50% (w/v) TCA (final concentration, 10% TCA) and incubated for 60 min at 4° C. The supernatant is discarded, and the plates are washed five times with tap water and air dried. Sulforhodamine B (SRB) solution (100 μL) at 0.4% (w/v) in 1% acetic acid is added to each well, and plates are incubated for 10 min at room temperature. After staining, unbound dye is removed by washing five times with 1% acetic acid and the plates are air dried. Bound stain is subsequently solubilized with 10 mM trizma base, and the absorbance is read on an automated plate reader at a wavelength of 515 nm. For suspension cells, the methodology is the same except that the assay is terminated by fixing settled cells at the bottom of the wells by gently adding 50 μL of 80% TCA (final concentration, 16% TCA). FIGS. 37-74 indicate the growth inhibition effects of selected Compounds against a variety of cell lines based on the above described testing configuration. FIGS. 37-74 present the Growth percent for a given compound against the cell lines and both values and a bar chart of the difference between the mean growth percent and the growth percent which is an indication of the selectivity of the compound for that particular cell line.

[3] = test system: MCF7 human breast cancer cell line; experiment: MTT assay of MCF7 cells; type: cell-based; conditions: media containing 1% fetal bovine serum
Experimental: MDA-MB-231 and MCF7 cells were plated at a density of 8×10^3 cells/well and 10^4 cells/well in 96-well culture plates, respectively. The compounds were fed in serum free media containing 5% and 1% fetal bovine serum for MDA-MB-231 and MCF7 cells, respectively.

SMILES: COc1ccc(CCNCc2c(O)c(C)c(C)c3c2CC[C@@](C)(CC/C=C(\C)CC/C=C(\C)CCC=C(C)C)O3)cc1OC [Compound 30, (R)-5-((3,4-dimethoxyphenethylamino)methyl)-2,7,8-trimethyl-2-((3E,7E)-4,8,12-trimethyltrideca-3,7,11-trienyl)chroman-6-ol]
- IC50 ([1]; Mus musculus, +SA cell): 3.19 µM
- mean percent growth across all 60 cell lines (mean 60) [2]: comparable to the activity of Compound 1

SMILES: CC(C)=CCC/C(C)=C/CC/C(C)=C/CC[C@]1(C)CCc2cc(O)c(C)c(C)c2O1 [Compound 1, γ-tocotrienol, reference compound]
- IC50 [1]: 4 µM
- mean percent growth across all 60 cell lines (mean 60) [2]: inactive
- IC50 [3]: 7.1 µM
